Assay results taken from ChEMBL document CHEMBL3045150, “Synthesis and structureactivity relationship studies on novel 8-amino-3-[2-(4-fluorophenoxy)ethyl]-1,3-diazaspiro[4.5]decane-2,4-dione derivatives as anticonvulsant agents” (Med Chem Res, 2013).

Tests used:
Mus musculus [1] = test: Anticonvulsant activity in albino Mus musculus (mouse) assessed as protection against maximal electric shock-induced seizures at 100 mg/kg, ip administered 30 min prior to maximal electric shock-challenge measured up to 4 hr relative to control; format: functional; details: route intraperitoneal
Mus musculus [2] = test: Neurotoxicity in albino Mus musculus (mouse) assessed as motor impairment at 100 mg/kg, po measured at 4 hr by rotarod test; format: toxicity, organism-based; set-up: dose 100 mg/kg, route oral; details: in vivo
Mus musculus [3] = test: Neurotoxicity in albino Mus musculus (mouse) assessed as motor impairment at 100 mg/kg, po measured at 2 hr by rotarod test; format: toxicity, organism-based; set-up: dose 100 mg/kg, route oral; details: in vivo

Structure (SMILES): O=C1NC2(CCC(NS(=O)(=O)c3cccc(F)c3)CC2)C(=O)N1CCOc1ccc(F)cc1 (stereo not given)
- Activity (Mus musculus [1]): 6.5%
- Activity (Mus musculus [2]): Non-toxic
- Activity (Mus musculus [3]): Non-toxic

Structure (SMILES): Cc1cc(C)cc(S(=O)(=O)NC2CCC3(CC2)NC(=O)N(CCOc2ccc(F)cc2)C3=O)c1 (stereo not given)
- Activity (Mus musculus [1]): 43.12%
- Activity (Mus musculus [2]): Non-toxic
- Activity (Mus musculus [3]): Non-toxic

Structure (SMILES): CCc1ccc(S(=O)(=O)NC2CCC3(CC2)NC(=O)N(CCOc2ccc(F)cc2)C3=O)cc1 (stereo not given)
- Activity (Mus musculus [1]): 1.23%
- Activity (Mus musculus [2]): Non-toxic
- Activity (Mus musculus [3]): Non-toxic

Structure (SMILES): Cc1cccc(S(=O)(=O)NC2CCC3(CC2)NC(=O)N(CCOc2ccc(F)cc2)C3=O)c1 (stereo not given)
- Activity (Mus musculus [1]): 4.55%
- Activity (Mus musculus [2]): Non-toxic
- Activity (Mus musculus [3]): Non-toxic

Structure (SMILES): N#Cc1ccccc1S(=O)(=O)NC1CCC2(CC1)NC(=O)N(CCOc1ccc(F)cc1)C2=O (stereo not given)
- Activity (Mus musculus [1]): 4.51%
- Activity (Mus musculus [2]): Non-toxic
- Activity (Mus musculus [3]): Non-toxic

Structure (SMILES): O=C(NC1CCC2(CC1)NC(=O)N(CCOc1ccc(F)cc1)C2=O)OCc1ccccc1Cl (stereo not given)
- Activity (Mus musculus [1]): 48.82%
- Activity (Mus musculus [2]): Non-toxic
- Activity (Mus musculus [3]): Non-toxic

Structure (SMILES): O=C(NC1CCC2(CC1)NC(=O)N(CCOc1ccc(F)cc1)C2=O)Oc1ccc(Cl)cc1 (stereo not given)
- Activity (Mus musculus [1]): 59.29%
- Activity (Mus musculus [2]): Non-toxic
- Activity (Mus musculus [3]): Non-toxic

Structure (SMILES): Cc1ccc(C(=O)NC2CCC3(CC2)NC(=O)N(CCOc2ccc(F)cc2)C3=O)cc1 (stereo not given)
- Activity (Mus musculus [1]): 79.58%
- Activity (Mus musculus [2]): Non-toxic
- Activity (Mus musculus [3]): Non-toxic

Structure (SMILES): O=C(Cc1ccccc1)NC1CCC2(CC1)NC(=O)N(CCOc1ccc(F)cc1)C2=O (stereo not given)
- Activity (Mus musculus [1]): 47.21%
- Activity (Mus musculus [2]): Non-toxic
- Activity (Mus musculus [3]): Non-toxic

Structure (SMILES): O=C(NC1CCC2(CC1)NC(=O)N(CCOc1ccc(F)cc1)C2=O)c1ccccc1F (stereo not given)
- Activity (Mus musculus [1]): 48.12%
- Activity (Mus musculus [2]): Toxic
- Activity (Mus musculus [3]): Toxic

Structure (SMILES): Cc1cccc(C(=O)NC2CCC3(CC2)NC(=O)N(CCOc2ccc(F)cc2)C3=O)c1 (stereo not given)
- Activity (Mus musculus [1]): 78.62%
- Activity (Mus musculus [2]): Non-toxic
- Activity (Mus musculus [3]): Non-toxic

Structure (SMILES): O=C(NC1CCC2(CC1)NC(=O)N(CCOc1ccc(F)cc1)C2=O)c1cccc(Cl)c1 (stereo not given)
- Activity (Mus musculus [1]): 58.61%
- Activity (Mus musculus [2]): Toxic
- Activity (Mus musculus [3]): Toxic

Structure (SMILES): O=C(NC1CCC2(CC1)NC(=O)N(CCOc1ccc(F)cc1)C2=O)c1ccccc1 (stereo not given)
- Activity (Mus musculus [1]): 55.78%
- Activity (Mus musculus [2]): Non-toxic
- Activity (Mus musculus [3]): Non-toxic

Structure (SMILES): O=C(NC1CCC2(CC1)NC(=O)N(CCOc1ccc(F)cc1)C2=O)c1cccc(F)c1 (stereo not given)
- Activity (Mus musculus [1]): 58.02%
- Activity (Mus musculus [2]): Toxic
- Activity (Mus musculus [3]): Toxic

Structure (SMILES): O=C(NC1CCC2(CC1)NC(=O)N(CCOc1ccc(F)cc1)C2=O)c1ccc(F)cc1 (stereo not given)
- Activity (Mus musculus [1]): 57.94%
- Activity (Mus musculus [2]): Toxic
- Activity (Mus musculus [3]): Toxic

Structure (SMILES): O=C(NC1CCC2(CC1)NC(=O)N(CCOc1ccc(F)cc1)C2=O)Oc1ccccc1 (stereo not given)
- Activity (Mus musculus [1]): 56.89%
- Activity (Mus musculus [2]): Non-toxic
- Activity (Mus musculus [3]): Non-toxic

Structure (SMILES): O=C(NC1CCC2(CC1)NC(=O)N(CCOc1ccc(F)cc1)C2=O)c1ccc(Cl)cc1 (stereo not given)
- Activity (Mus musculus [1]): 49.83%
- Activity (Mus musculus [2]): Toxic
- Activity (Mus musculus [3]): Toxic

Structure (SMILES): O=C(NC1CCC2(CC1)NC(=O)N(CCOc1ccc(F)cc1)C2=O)c1ccccc1C(F)(F)F (stereo not given)
- Activity (Mus musculus [1]): 79.32%
- Activity (Mus musculus [2]): Non-toxic
- Activity (Mus musculus [3]): Non-toxic

Structure (SMILES): O=C(NC1CCC2(CC1)NC(=O)N(CCOc1ccc(F)cc1)C2=O)c1ccccc1Cl (stereo not given)
- Activity (Mus musculus [1]): 49.41%
- Activity (Mus musculus [2]): Non-toxic
- Activity (Mus musculus [3]): Non-toxic

Structure (SMILES): CC(C)(C)c1ccc(C(=O)NC2CCC3(CC2)NC(=O)N(CCOc2ccc(F)cc2)C3=O)cc1 (stereo not given)
- Activity (Mus musculus [1]): 48.15%
- Activity (Mus musculus [2]): Non-toxic
- Activity (Mus musculus [3]): Non-toxic

Structure (SMILES): Cc1ccc(S(=O)(=O)NC2CCC3(CC2)NC(=O)N(CCOc2ccc(F)cc2)C3=O)cc1C (stereo not given)
- Activity (Mus musculus [1]): 42.61%
- Activity (Mus musculus [2]): Non-toxic
- Activity (Mus musculus [3]): Non-toxic

Structure (SMILES): Cc1ccccc1S(=O)(=O)NC1CCC2(CC1)NC(=O)N(CCOc1ccc(F)cc1)C2=O (stereo not given)
- Activity (Mus musculus [1]): 13%
- Activity (Mus musculus [2]): Non-toxic
- Activity (Mus musculus [3]): Non-toxic

Structure (SMILES): O=C1NC2(CCC(NS(=O)(=O)c3cccc(Br)c3)CC2)C(=O)N1CCOc1ccc(F)cc1 (stereo not given)
- Activity (Mus musculus [1]): 7.41%
- Activity (Mus musculus [2]): Non-toxic
- Activity (Mus musculus [3]): Non-toxic

Structure (SMILES): O=C1NC2(CCC(NS(=O)(=O)c3ccccc3F)CC2)C(=O)N1CCOc1ccc(F)cc1 (stereo not given)
- Activity (Mus musculus [1]): 4.94%
- Activity (Mus musculus [2]): Non-toxic
- Activity (Mus musculus [3]): Non-toxic

Structure (SMILES): Cc1ccc(C)c(S(=O)(=O)NC2CCC3(CC2)NC(=O)N(CCOc2ccc(F)cc2)C3=O)c1 (stereo not given)
- Activity (Mus musculus [1]): 43.95%
- Activity (Mus musculus [2]): Non-toxic
- Activity (Mus musculus [3]): Non-toxic

Structure (SMILES): Cc1ccc(S(=O)(=O)NC2CCC3(CC2)NC(=O)N(CCOc2ccc(F)cc2)C3=O)cc1 (stereo not given)
- Activity (Mus musculus [1]): 1.14%
- Activity (Mus musculus [2]): Non-toxic
- Activity (Mus musculus [3]): Non-toxic

Structure (SMILES): O=C1NC2(CCC(NS(=O)(=O)c3cccc(Cl)c3)CC2)C(=O)N1CCOc1ccc(F)cc1 (stereo not given)
- Activity (Mus musculus [1]): 4.55%
- Activity (Mus musculus [2]): Toxic
- Activity (Mus musculus [3]): Toxic

Structure (SMILES): Cc1cc(F)ccc1S(=O)(=O)NC1CCC2(CC1)NC(=O)N(CCOc1ccc(F)cc1)C2=O (stereo not given)
- Activity (Mus musculus [1]): 3.25%
- Activity (Mus musculus [2]): Non-toxic
- Activity (Mus musculus [3]): Non-toxic

Structure (SMILES): COc1ccc(S(=O)(=O)NC2CCC3(CC2)NC(=O)N(CCOc2ccc(F)cc2)C3=O)cc1 (stereo not given)
- Activity (Mus musculus [1]): 9.23%
- Activity (Mus musculus [2]): Non-toxic
- Activity (Mus musculus [3]): Non-toxic

Structure (SMILES): Cc1ccc(CS(=O)(=O)NC2CCC3(CC2)NC(=O)N(CCOc2ccc(F)cc2)C3=O)cc1 (stereo not given)
- Activity (Mus musculus [1]): 12.6%
- Activity (Mus musculus [2]): Toxic
- Activity (Mus musculus [3]): Toxic
